We go through six compounds from patent US10604510B2, “Solid forms comprising (1E, 4E)-2-amino-N,N-dipropyl-8-(4-(pyrrolidine-1-carbonyl)phenyl)-3H-benzo[B]azepine-4-carboxami compositions thereof, and uses thereof” (Celgene Corporation, priority 2014, dated 2020).

≈ marks a conversion by molar mass, not a printed value. Like-named read-outs stand apart in the source and are kept apart here. Bounds are passed on as bounds.

What all share (type): physicochemical
Data set [1] is described as follows: Solubility of Forms A and G after 40 min stirring. As to conditions: organic solvent or mixture, thermodynamic from solid. The protocol:
(§1) For purity estimation and determination of the solubility in solution a generic in-house HPLC method was used. HPLC was performed using a Phenomenex Luna 3 μm C18 (50×4.6 mm) column and detected with a DAD detector, recording at 214 nm.

Data set [2] can be described thus: Solubility of Form A at 20° C. and 40° C. As to conditions: organic solvent or mixture, thermodynamic from solid. The protocol:
as §1
To develop a Form A crystallization, a series of solubility data points was collected (Table 5). An amount of up to 15 mg was suspended in 150 μL and the mixture stirred for 2 days. Solubility was then determined by HPLC or by calculation if a solution was observed.

A short description of data set [3]: Form stability analysis (solubility and concurrent slurry experiments). The protocol: As form conversions tend to happen faster at elevated temperature at 60° C., slurries were performed for the starting material used for the screening (A/G mixture) during 18 h at 60° C.
Forms J and C were identified as potential non-solvates and their stability was investigated. Form J could be eliminated as stable form because, in part, the DSC (FIG. 36) indicated an exothermic form conversion around 140° C. This leads to a form melting at 210° C., which likely represents Form G and therefore represents a monotropic relation.
Form C was obtained by drying a Form C/J mixture. The XRPD pattern appeared to contain traces of reflexes of Form J. Slurries of Form C seeded with Form A (15% w/w) in ethanol and acetone were performed during 18 h. The resulting solid was pure Form A. This also confirmed the exothermic event observed in DSC (FIG. 16) which indicated a monotropic relation to the form formed in DSC around 130° C. (melting point 210° C., which, as described herein, is likely Form G).

A short description of data set [4]: Slurry screening, solubility determined by HPLC. The settings on record: thermodynamic from solid; for solubility at 5 days: slurry stirred 5 days; for Solubility: solution. The protocol: as §1
The slurry experiments were performed by taking approximately 40 mg starting material and slurrying in each of the solvent mixtures as detailed Table 3 using a magnetic stir bar. Solvents were chosen as described to have a high diversity (e.g., in polarity, protic/aprotic). The solvents were not necessarily selected for pharmaceutical suitability in regards to ICH guidelines. Only as much solvent or mixtures as needed to slurry/suspend the material was used—starting from 200 μL to a maximum of 2 mL. The slurries were stirred for 5 days. The suspensions were filtered and the filter cake slightly dried to not destroy potential solvates and subjected to XRPD. In case suspensions started to run through the filter the suspensions were dried using a nitrogen stream. As the solubility was tested in the solvents, the evaporated solvent provides a small amount of solid compared to the material suspended (i.e., the slurry form still should be dominant).

In general, solubility refers to the dissolved amount per volume that the medium holds. With `CCCN(CCC)C(=O)C1=Cc2ccc(-c3ccc(C(=O)N4CCCC4)cc3)cc2N=C(N)C1` [Compound A, (1E, 4E)-2-amino-N,N-dipropyl-8-(4-(pyrrolidine-1-carbonyl)phenyl)-3H-benzo[b]azepine-4-carboxamide], the solubility at 40 min in data set [1] (EtOH, 0 °C) turned out to be 4700 µg/mL (≈ 10.2 mM); in data set [1] (EtOH, 22 °C), 11700 µg/mL (≈ 25.5 mM); in data set [1] (EtOH, 60 °C), 32100 µg/mL (≈ 70 mM); in data set [1] (MEK, 0 °C), 1800 µg/mL (≈ 3.92 mM); in data set [1] (MEK, 22 °C) it was 2400 µg/mL (≈ 5.23 mM); in data set [1] (MEK, 60 °C), 3700 µg/mL (≈ 8.07 mM).

Take `CCCN(CCC)C(=O)C1=Cc2ccc(-c3ccc(C(=O)N4CCCC4)cc3)cc2N=C(N)C1` [Form A, (1E, 4E)-2-amino-N,N-dipropyl-8-(4-(pyrrolidine-1-carbonyl)phenyl)-3H-benzo[b]azepine-4-carboxamide]: the solubility at 2 days in data set [2] (2-PrOH, 20° C., stirred 2 days) worked out at 4500 µg/mL (≈ 9.81 mM); in data set [2] (2-PrOH, 40° C., stirred 2 days) it was 9590 µg/mL (≈ 20.9 mM); in data set [2] (DMSO, 20° C., stirred 2 days), 21600 µg/mL (≈ 47.1 mM); in data set [2] (DMSO, 40° C., stirred 2 days), 50900 µg/mL (≈ 111 mM); in data set [2] (DMSO/EtOAc 1:1 v/v, 20° C., stirred 2 days) it was 15000 µg/mL (≈ 32.7 mM); in data set [2] (DMSO/EtOAc 1:1 v/v, 40° C., stirred 2 days), 36900 µg/mL (≈ 80.5 mM). The solubility at 2 days in data set [2] (DMSO/TBME 1:1 v/v, 20° C., stirred 2 days) was 17200 µg/mL (≈ 37.5 mM); in data set [2] (DMSO/TBME 1:1 v/v, 40° C., stirred 2 days), 44600 µg/mL (≈ 97.3 mM); in data set [2] (EtOH, 20° C., stirred 2 days), 8500 µg/mL (≈ 18.5 mM); in data set [2] (EtOH, 40° C., stirred 2 days), 24000 µg/mL (≈ 52.3 mM); in data set [2] (THF, 20° C., stirred 2 days), 3700 µg/mL (≈ 8.07 mM); in data set [2] (THF, 40° C., stirred 2 days), 7700 µg/mL (≈ 16.8 mM). In addition, the solubility at 2 days in data set [2] (THF/EtOH 8:2 v/v, 20° C., stirred 2 days) was 13400 µg/mL (≈ 29.2 mM); in data set [2] (THF/EtOH 8:2 v/v, 40° C., stirred 2 days), 27800 µg/mL (≈ 60.6 mM); in data set [2] (THF/H2O 8:2 v/v, 20° C., stirred 2 days), 38600 µg/mL (≈ 84.2 mM); in data set [2] (THF/H2O 8:2 v/v, 40° C., clear solution with 10 vol of solvent mix), above 100000 µg/mL; in data set [2] (Toluene/2-PrOH 7:3 v/v, 20° C., stirred 2 days), 23100 µg/mL (≈ 50.4 mM); in data set [2] (Toluene/2-PrOH 7:3 v/v, 40° C., stirred 2 days), 45900 µg/mL (≈ 100 mM). Further, the solubility at 2 days in data set [2] (Toluene/MeOH 7:3 v/v, 20° C., clear solution with 10 vol of solvent mix) is above 100000 µg/mL; in data set [2] (Toluene/MeOH 7:3 v/v, 40° C., clear solution with 10 vol of solvent mix), above 100000 µg/mL. For the same compound, in data set [3], the “stability relative to other crystalline forms” value was “more stable than Form G at 20 °C”. In addition, the “thermodynamic stability of the crystalline form” value in data set [3] (from 0° C. to 60° C.) was “thermodynamically most stable form”.

As to `CCCN(CCC)C(=O)C1=Cc2ccc(-c3ccc(C(=O)N4CCCC4)cc3)cc2N=C(N)C1` [Form C, (1E, 4E)-2-amino-N,N-dipropyl-8-(4-(pyrrolidine-1-carbonyl)phenyl)-3H-benzo[b]azepine-4-carboxamide], the “stability relative to other crystalline forms” value in data set [3] is “less stable than Forms A and G”. Moreover, the “form of resulting solid after slurry” value in data set [3] (seeded with Form A (15% w/w), slurries in ethanol and acetone during 18 h) is reported as “pure Form A”.

For the compound `CCCN(CCC)C(=O)C1=Cc2ccc(-c3ccc(C(=O)N4CCCC4)cc3)cc2N=C(N)C1` [Form J, (1E, 4E)-2-amino-N,N-dipropyl-8-(4-(pyrrolidine-1-carbonyl)phenyl)-3H-benzo[b]azepine-4-carboxamide], the “stability relative to other crystalline forms” value in data set [3] was “less stable than Form A”; in data set [3] (listed as J) it was “less stable than Forms A and G”.

Turning to `CCCN(CCC)C(=O)C1=Cc2ccc(-c3ccc(C(=O)N4CCCC4)cc3)cc2N=C(N)C1` [Form H, (1E, 4E)-2-amino-N,N-dipropyl-8-(4-(pyrrolidine-1-carbonyl)phenyl)-3H-benzo[b]azepine-4-carboxamide], the “stability relative to other crystalline forms” value in data set [3] is “Form A is more stable than Form H”.

For orientation: Solubility means the dissolved amount per volume that the medium holds. In the case of `CCCN(CCC)C(=O)C1=Cc2ccc(-c3ccc(C(=O)N4CCCC4)cc3)cc2N=C(N)C1` [starting material, (1E, 4E)-2-amino-N,N-dipropyl-8-(4-(pyrrolidine-1-carbonyl)phenyl)-3H-benzo[b]azepine-4-carboxamide], the solubility at 5 days came to 3220 µg/mL (≈ 7.02 mM) in data set [4] (aqueous with cosolvent or surfactant or cyclodextrin, solvent EtOH/water 1/1); 21000 µg/mL (≈ 45.7 mM) in data set [4] (aqueous with cosolvent or surfactant or cyclodextrin, solvent EtOH/water 3/1); 16900 µg/mL (≈ 36.8 mM) in data set [4] (aqueous with cosolvent or surfactant or cyclodextrin, solvent IPA/water 3/1); 480 µg/mL (≈ 1.05 mM) in data set [4] (aqueous with cosolvent or surfactant or cyclodextrin, solvent ac/water 1/2); 12000 µg/mL (≈ 26.2 mM) in data set [4] (organic solvent or mixture, solvent 1-propanol); 1030 µg/mL (≈ 2.25 mM) in data set [4] (organic solvent or mixture, solvent 2-Me-THF). The solubility at 5 days in data set [4] (organic solvent or mixture, solvent 2-propanol) is 6860 µg/mL (≈ 15 mM); in data set [4] (organic solvent or mixture, solvent ACN), 810 µg/mL (≈ 1.77 mM); in data set [4] (organic solvent or mixture, solvent DCM) it was above 70000 µg/mL; in data set [4] (organic solvent or mixture, solvent DMSO) it was 28800 µg/mL (≈ 62.8 mM); in data set [4] (organic solvent or mixture, solvent EtOAc wet) it was 2690 µg/mL (≈ 5.87 mM); in data set [4] (organic solvent or mixture, solvent MCH), 80 µg/mL (≈ 0.174 mM). Also, the solubility at 5 days in data set [4] (organic solvent or mixture, solvent MEK) worked out at 3670 µg/mL (≈ 8 mM); in data set [4] (organic solvent or mixture, solvent MIBK), 790 µg/mL (≈ 1.72 mM); in data set [4] (organic solvent or mixture, solvent NMP) it was 52300 µg/mL (≈ 114 mM); in data set [4] (organic solvent or mixture, solvent TBME) it was 160 µg/mL (≈ 0.349 mM); in data set [4] (organic solvent or mixture, solvent THF) it was 5710 µg/mL (≈ 12.5 mM); in data set [4] (organic solvent or mixture, solvent acetone), 1370 µg/mL (≈ 2.99 mM). The solubility at 5 days came out at 1810 µg/mL (≈ 3.95 mM) in data set [4] (organic solvent or mixture, solvent chlorobenzene); 20 µg/mL (≈ 0.0436 mM) in data set [4] (organic solvent or mixture, solvent diethylether); 5100 µg/mL (≈ 11.1 mM) in data set [4] (organic solvent or mixture, solvent dioxane); 11600 µg/mL (≈ 25.3 mM) in data set [4] (organic solvent or mixture, solvent ethanol); 570 µg/mL (≈ 1.24 mM) in data set [4] (organic solvent or mixture, solvent ethyl acetate); 20 µg/mL (≈ 0.0436 mM) in data set [4] (organic solvent or mixture, solvent heptane). Further, the solubility at 5 days in data set [4] (organic solvent or mixture, solvent iPrOAc) came out at 600 µg/mL (≈ 1.31 mM); in data set [4] (organic solvent or mixture, solvent methanol) it was 29800 µg/mL (≈ 65.1 mM); in data set [4] (organic solvent or mixture, solvent methyl acetate), 940 µg/mL (≈ 2.05 mM); in data set [4] (organic solvent or mixture, solvent toluene), 450 µg/mL (≈ 0.981 mM); in data set [4] (solvent water), 40 µg/mL (≈ 0.0872 mM). For the same compound, the Solubility was above 100000 µg/mL in data set [4] (aqueous with cosolvent or surfactant or cyclodextrin, solvent HOAc/water 1/1) and above 130000 µg/mL in data set [4] (organic solvent or mixture, solvent trifluoroethanol). For the same compound, the “form of isolated solid after slurry” value in data set [3] (slurries during 18 h at 60° C.) was “pure Form A”.
